Laboratory results as given in patent US20230141101A1, “PDE4 INHIBITOR COMPOUND AND MEDICAL USE THEREOF” (Suzhou Longbotai Pharmaceuticals Co., Ltd., priority 2020, published 2023).

Columns and labels:
Assay type in all cases: biochemical
PDE4A1A = target: T1, PDE4A1A (Homo sapiens, UniProt P27815); assay: PDE4 inhibitory activity assay (FAM-cAMP enzymatic reaction), PDE4A1A
T1 construct: purchased BPS 60040
How it was run: (§1)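 Human PDE4A1A, PDE4B1 or PDE4D2 preincubated with compound 15 min at room temperature, then FAM-cAMP substrate added; reaction 30 min at room temperature before stop solution and further 60 min. Fluorescence read on multilabel counter; IC50 fitted from inhibition rates.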

PDE4D2 = PDE4D2 (Homo sapiens, UniProt Q08499); assay: PDE4 inhibitory activity assay (FAM-cAMP enzymatic reaction), PDE4D2
Sequence of PDE4D2 (Q08499 303-809): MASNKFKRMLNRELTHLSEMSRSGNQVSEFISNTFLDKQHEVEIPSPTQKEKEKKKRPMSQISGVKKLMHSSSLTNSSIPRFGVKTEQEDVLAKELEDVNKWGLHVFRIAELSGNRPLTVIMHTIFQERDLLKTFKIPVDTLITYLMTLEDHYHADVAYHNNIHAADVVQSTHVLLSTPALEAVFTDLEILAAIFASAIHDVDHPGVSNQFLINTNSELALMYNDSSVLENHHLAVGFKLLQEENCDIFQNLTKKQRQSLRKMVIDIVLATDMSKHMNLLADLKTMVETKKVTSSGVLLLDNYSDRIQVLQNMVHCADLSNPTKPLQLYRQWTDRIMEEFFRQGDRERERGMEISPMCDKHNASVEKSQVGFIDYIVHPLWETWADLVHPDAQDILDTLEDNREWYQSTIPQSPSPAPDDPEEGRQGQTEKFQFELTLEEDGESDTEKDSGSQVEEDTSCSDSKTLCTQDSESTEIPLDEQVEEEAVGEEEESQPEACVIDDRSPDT
How it was run: as §1

PDE4B1 = target: T2, PDE4B1 (Homo sapiens, UniProt Q07343); assay: PDE4 inhibitory activity assay (FAM-cAMP enzymatic reaction), PDE4B1
T2 construct: purchased BPS 60041
T2 sequence (Q07343 whole entry): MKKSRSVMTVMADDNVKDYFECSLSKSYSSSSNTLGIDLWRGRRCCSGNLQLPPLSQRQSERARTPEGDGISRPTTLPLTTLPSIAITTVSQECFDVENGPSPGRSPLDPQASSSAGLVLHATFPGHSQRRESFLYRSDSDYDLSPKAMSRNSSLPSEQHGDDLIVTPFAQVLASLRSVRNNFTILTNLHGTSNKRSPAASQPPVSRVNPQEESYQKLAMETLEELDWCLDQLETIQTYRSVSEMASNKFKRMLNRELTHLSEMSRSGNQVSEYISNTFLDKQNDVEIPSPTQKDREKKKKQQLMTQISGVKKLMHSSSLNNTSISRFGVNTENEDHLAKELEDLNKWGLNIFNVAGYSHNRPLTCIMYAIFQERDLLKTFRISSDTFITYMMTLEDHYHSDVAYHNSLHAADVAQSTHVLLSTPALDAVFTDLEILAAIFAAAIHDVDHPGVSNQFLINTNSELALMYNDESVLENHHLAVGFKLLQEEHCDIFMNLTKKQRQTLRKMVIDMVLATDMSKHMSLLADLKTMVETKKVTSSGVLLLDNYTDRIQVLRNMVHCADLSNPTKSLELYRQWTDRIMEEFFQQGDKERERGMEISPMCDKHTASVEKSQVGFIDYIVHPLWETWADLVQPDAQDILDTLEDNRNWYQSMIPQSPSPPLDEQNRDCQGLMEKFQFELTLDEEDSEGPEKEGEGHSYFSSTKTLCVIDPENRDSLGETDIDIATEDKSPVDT
How it was run: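 Each isoform is incubated with test compound for 15 min at room temperature before FAM-cAMP substrate starts a 30-min reaction.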

[1] = compared with Apremilast and Example 11 of WO2018036470 (WX011)

T1 sequence (P27815 1-647 isoform P27815-4): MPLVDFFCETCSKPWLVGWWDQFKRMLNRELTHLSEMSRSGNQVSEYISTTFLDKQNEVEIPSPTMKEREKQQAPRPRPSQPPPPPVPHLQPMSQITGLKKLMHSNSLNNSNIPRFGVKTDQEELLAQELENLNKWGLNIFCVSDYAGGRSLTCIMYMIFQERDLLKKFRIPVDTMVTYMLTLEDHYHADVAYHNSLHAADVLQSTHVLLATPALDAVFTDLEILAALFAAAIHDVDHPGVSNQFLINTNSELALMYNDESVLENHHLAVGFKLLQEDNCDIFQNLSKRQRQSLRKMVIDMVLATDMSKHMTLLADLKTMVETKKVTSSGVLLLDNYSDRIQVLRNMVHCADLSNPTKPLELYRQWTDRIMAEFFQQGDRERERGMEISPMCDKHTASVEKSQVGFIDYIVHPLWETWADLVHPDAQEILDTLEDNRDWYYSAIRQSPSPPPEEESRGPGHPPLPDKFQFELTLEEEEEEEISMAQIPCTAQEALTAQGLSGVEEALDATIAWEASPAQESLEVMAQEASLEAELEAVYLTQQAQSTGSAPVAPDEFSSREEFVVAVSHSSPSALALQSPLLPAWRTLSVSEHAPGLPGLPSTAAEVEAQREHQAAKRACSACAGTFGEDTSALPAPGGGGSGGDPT

Structure (SMILES)	PDE4 A1 inhibitory effect at 20 nM (PDE4A1A)	PDE4 D2 inhibitory effect at 20 nM (PDE4D2)	PDE4 B1 inhibitory effect at 20 nM (PDE4B1)	IC50 (PDE4D2; read-out: PDE4 D2 inhibitory activity (IC50 value)) [nM]	inhibitory activity against PDE4A1A compared with Apremilast and WX011 (PDE4A1A; [1])	inhibitory activity against PDE4D2 compared with Apremilast and WX011 (PDE4D2; [1])	inhibitory activity against PDE4B1 compared with Apremilast and WX011 (PDE4B1; [1])
CCOc1nc([C@@H](CS(C)(=O)=O)n2c(=O)[nH]c3cc(-c4ccccc4C(F)(F)F)cnc32)ccc1OC [Ex. 85, (S)-3-(1-(6-ethoxy-5-methoxypyridin-2-yl)-2-(methylsulfonyl)ethyl)-6-(2-(trifluoromethyl)phenyl)-1H-imidazo[4,5-b]pyridin-2(3H)-one]	+	+	+				
CCOc1nc([C@@H](CS(C)(=O)=O)N2Cc3cccc(NC(=O)CC)c3C2=O)ccc1OC [Ex. 219, (S)—N-(2-(1-(6-ethoxy-5-methoxypyridin-2-yl)-2-(methylsulfonyl)ethyl)-3-oxoisoindolin-4-yl)propionamide]	+	+	+				
CCOc1nc([C@@H](CS(C)(=O)=O)n2c(=O)[nH]c3c(C)c(-c4c(F)cccc4F)cnc32)ccc1OC [Ex. 23, (S)-6-(2,6-difluorophenyl)-3-(1-(6-ethoxy-5-methoxypyridin-2-yl)-2-(methylsulfonyl)ethyl)-7-methyl-1H-imidazo[4,5-b]pyridin-2(3H)-one]	+	+	+				
CCOc1nc([C@@H](CS(C)(=O)=O)N2C(=O)c3csc([N+](=O)[O-])c3C2=O)ccc1OC [Ex. 222, (S)-5-(1-(6-ethoxy-5-methoxypyridin-2-yl)-2-(methylsulfonyl)ethyl)-1-nitro-4H-thieno[3,4-c]pyrrol-4,6(5H)-dione]	+	+	+				
CCOc1nc([C@@H](CS(C)(=O)=O)n2c(=O)[nH]c3c(C)c(-c4ccccc4CC)cnc32)ccc1OC [Ex. 10, (S)-3-(1-(6-ethoxy-5-methoxypyridin-2-yl)-2-(methylsulfonyl)ethyl)-6-(2-ethylphenyl)-7-methyl-1H-imidazo[4,5-b]pyridin-2(3H)-one]				2.8	significantly enhanced inhibitory activity	significantly enhanced inhibitory activity	significantly enhanced inhibitory activity
CCOc1nc([C@H](CS(C)(=O)=O)n2c(=O)n(CC(F)(F)F)c3c(C)c(-c4ccccc4F)cnc32)ccc1OC [Ex. 52, (R)-3-(1-(6-ethoxy-5-methoxypyridin-2-yl)-2-(methylsulfonyl)ethyl)-6-(2-fluorophenyl)-7-methyl-1-(2,2,2-trifluoroethyl)-1H-imidazo[4,5-b]pyridin-2(3H)-one]	−	−	−				
CCOc1nc([C@H](CS(C)(=O)=O)n2c(=O)[nH]c3c(C)c(-c4ccccc4C#N)cnc32)ccc1OC [Ex. 16, (R)-2-(3-(1-(6-ethoxy-5-methoxypyridin-2-yl)-2-(methylsulfonyl)ethyl)-7-methyl-2-oxo-2,3-dihydro-1H-imidazo[4,5-b]pyridin-6-yl)benzonitrile]	−	−	−				
CCOc1nc([C@H](CS(C)(=O)=O)n2c(=O)n(CC(F)(F)F)c3c(C)c(-c4ccccc4)cnc32)ccc1OC [Ex. 54, (R)-3-(1-(6-ethoxy-5-methoxypyridin-2-yl)-2-(methylsulfonyl)ethyl)-7-methyl-6-phenyl-1-(2,2,2-trifluoroethyl)-1H-imidazo[4,5-b]pyridin-2(3H)-one]	−	−	−				
CCOc1nc([C@@H](CS(C)(=O)=O)N2C(=O)c3csc(N)c3C2=O)ccc1OC [Ex. 223, (S)-1-amino-5-(1-(6-ethoxy-5-methoxypyridin-2-yl)-2-(methylsulfonyl)ethyl)-4H-thieno[3,4-c]pyrrol-4,6 (5H)-dione]	+	+	+				
CCOc1nc([C@H](CS(C)(=O)=O)N2C(=O)c3csc(NC(C)=O)c3C2=O)ccc1OC [Ex. 225, (R)—N-(5-(1-(6-ethoxy-5-methoxypyridin-2-yl)-2-(methylsulfonyl)ethyl)-4,6-dioxo-5,6-dihydro-4H-thieno[3,4-c]pyrrol-1-yl)acetamide]	−	−	−				

Second part, led by results:

PDE4 A1 inhibitory effect at 20 nM (PDE4A1A)	PDE4 D2 inhibitory effect at 20 nM (PDE4D2)	PDE4 B1 inhibitory effect at 20 nM (PDE4B1)	IC50 (PDE4D2; read-out: PDE4 D2 inhibitory activity (IC50 value)) [nM]	Structure (SMILES)	inhibitory activity against PDE4A1A compared with Apremilast and WX011 (PDE4A1A; [1])	inhibitory activity against PDE4D2 compared with Apremilast and WX011 (PDE4D2; [1])	inhibitory activity against PDE4B1 compared with Apremilast and WX011 (PDE4B1; [1])
+	+	+		CCOc1nc([C@@H](CS(C)(=O)=O)n2c(=O)[nH]c3c(C)c(-c4cc(OC)ccc4F)cnc32)ccc1OC [Ex. 41, (S)-6-(2-fluoro-5-methoxyphenyl)-3-(1-(6-ethoxy-5-methoxypyridin-2-yl)-2-(methylsulfonyl)ethyl)-7-methyl-1H-imidazo[4,5-b]pyridin-2(3H)-one]			
−	−	−		CCOc1nc([C@H](CS(C)(=O)=O)n2c(=O)[nH]c3c(C)c(-c4ccc(F)cc4)cnc32)ccc1OC [Ex. 7, (R)-3-(1-(6-ethoxy-5-methoxypyridin-2-yl)-2-(methylsulfonyl)ethyl)-6-(4-fluorophenyl)-7-methyl-1H-imidazo[4,5-b]pyridin-2(3H)-one]			
+	+	+		CCOc1nc([C@@H](CS(C)(=O)=O)n2c(=O)[nH]c3c(C)c(-c4cc(C)ccc4C)cnc32)ccc1OC [Ex. 32, (S)-6-(2,5-dimethylphenyl)-3-(1-(6-ethoxy-5-methoxypyridin-2-yl)-2-(methylsulfonyl)ethyl)-7-methyl-1H-imidazo[4,5-b]pyridin-2(3H)-one]			
+	+	+		CCOc1nc([C@H](CS(C)(=O)=O)n2c(=O)n(C)c3cc(-c4ccc(F)cc4)ccc32)ccc1OC [Ex. 138, (R)-1-(1-(6-ethoxy-5-methoxypyridin-2-yl)-2-(methylsulfonyl)ethyl)-3-methyl-5-(4-fluorophenyl)-1H-benzo[d]imidazol-2(3H)-one]			
+	+	+		CCOc1nc([C@@H](CS(C)(=O)=O)n2c(=O)n(C)c3cc(-c4ccc(F)cc4C)ccc32)ccc1OC [Ex. 170, (S)-5-(4-fluoro-2-methylphenyl)-1-(1-(6-ethoxy-5-methoxypyridin-2-yl)-2-(methylsulfonyl)ethyl)-3-methyl-1H-benzo[d]imidazol-2(3H)-one]			
+	+	+		CCOc1nc([C@@H](CS(C)(=O)=O)n2c(=O)[nH]c3c(C)c(-c4ccccc4C(C)C)ccc32)ccc1OC [Ex. 149, (S)-1-(1-(6-ethoxy-5-methoxypyridin-2-yl)-2-(methylsulfonyl)ethyl)-5-(2-isopropylphenyl)-4-methyl-1H-benzo[d]imidazol-2(3H)-one]			
−	−	−		CCOc1nc([C@H](CS(C)(=O)=O)n2c(=O)n(CC)c3c(C)c(-c4ccccc4)cnc32)ccc1OC [Ex. 47, (R)-3-(1-(6-ethoxy-5-methoxypyridin-2-yl)-2-(methylsulfonyl)ethyl)-1-ethyl-7-methyl-6-phenyl-1H-imidazo[4,5-b]pyridin-2(3H)-one]			
+	+	+		CCOc1nc([C@@H](CS(C)(=O)=O)n2c(=O)[nH]c3cc(-c4ccc(F)cc4F)ccc32)ccc1OC [Ex. 156, (S)-5-(2,4-difluorophenyl)-1-(1-(6-ethoxy-5-methoxypyridin-2-yl)-2-(methylsulfonyl)ethyl)-1H-benzo[d]imidazol-2(3H)-one]			
+	+	+		CCOc1nc([C@@H](CS(C)(=O)=O)n2c(=O)n(C)c3cc(-c4cccc(C)c4F)ccc32)ccc1OC [Ex. 178, (S)-5-(2-fluoro-3-methylphenyl)-1-(1-(6-ethoxy-5-methoxypyridin-2-yl)-2-(methylsulfonyl)ethyl)-3-methyl-1H-benzo[d]imidazol-2(3H)-one]			
+	+	+		CCOc1nc([C@@H](CS(C)(=O)=O)n2c(=O)[nH]c3cc(-c4cc(F)c(F)cc4F)cnc32)ccc1OC [Ex. 96, (S)-6-(2,4,5-trifluorophenyl)-3-(1-(6-ethoxy-5-methoxypyridin-2-yl)-2-(methylsulfonyl)ethyl)-1H-imidazo[4,5-b]pyridin-2(3H)-one]			
+	+	+		CCOc1nc([C@@H](CS(C)(=O)=O)n2c(=O)[nH]c3cc(-c4ccc(F)cc4OC)cnc32)ccc1OC [Ex. 119, (S)-6-(4-fluoro-2-methoxyphenyl)-3-(1-(6-ethoxy-5-methoxypyridin-2-yl)-2-(methylsulfonyl)ethyl)-1H-imidazo[4,5-b]pyridin-2(3H)-one]			
+	+	+		CCOc1nc([C@@H](CS(C)(=O)=O)n2c(=O)n(C)c3c(C)c(-c4ccccn4)cnc32)ccc1OC [Ex. 19, (S)-3-(1-(6-ethoxy-5-methoxypyridin-2-yl)-2-(methylsulfonyl)ethyl)-1,7-dimethyl-6-(pyridin-2-yl)-1H-imidazo[4,5-b]pyridin-2(3H)-one]			
